The values below come from patent US20240269139A1, “COMPOUNDS FOR TARGETED PROTEIN DEGRADATION OF KINASES” (DANA-FARBER CANCER INSTITUTE, INC., priority 2020, published 2024).

Like-named read-outs stand apart in the source and are kept apart here.

Common to all, as to type: cell-based
Assay [1] concerns the target protein kinases (human kinome) (Homo sapiens, UniProt P45984). As to conditions: MAPK9 P45984-1.
Assay [2] addresses protein kinases (human kinome) (Homo sapiens, UniProt Q16584).
The target of assay [3] is protein kinases (human kinome) (Homo sapiens, UniProt Q14004). The note with it: for logFC CDK13: Accession Q14004-1.
Chain of protein kinases (human kinome) (Homo sapiens, UniProt Q14004) (Q14004 whole entry): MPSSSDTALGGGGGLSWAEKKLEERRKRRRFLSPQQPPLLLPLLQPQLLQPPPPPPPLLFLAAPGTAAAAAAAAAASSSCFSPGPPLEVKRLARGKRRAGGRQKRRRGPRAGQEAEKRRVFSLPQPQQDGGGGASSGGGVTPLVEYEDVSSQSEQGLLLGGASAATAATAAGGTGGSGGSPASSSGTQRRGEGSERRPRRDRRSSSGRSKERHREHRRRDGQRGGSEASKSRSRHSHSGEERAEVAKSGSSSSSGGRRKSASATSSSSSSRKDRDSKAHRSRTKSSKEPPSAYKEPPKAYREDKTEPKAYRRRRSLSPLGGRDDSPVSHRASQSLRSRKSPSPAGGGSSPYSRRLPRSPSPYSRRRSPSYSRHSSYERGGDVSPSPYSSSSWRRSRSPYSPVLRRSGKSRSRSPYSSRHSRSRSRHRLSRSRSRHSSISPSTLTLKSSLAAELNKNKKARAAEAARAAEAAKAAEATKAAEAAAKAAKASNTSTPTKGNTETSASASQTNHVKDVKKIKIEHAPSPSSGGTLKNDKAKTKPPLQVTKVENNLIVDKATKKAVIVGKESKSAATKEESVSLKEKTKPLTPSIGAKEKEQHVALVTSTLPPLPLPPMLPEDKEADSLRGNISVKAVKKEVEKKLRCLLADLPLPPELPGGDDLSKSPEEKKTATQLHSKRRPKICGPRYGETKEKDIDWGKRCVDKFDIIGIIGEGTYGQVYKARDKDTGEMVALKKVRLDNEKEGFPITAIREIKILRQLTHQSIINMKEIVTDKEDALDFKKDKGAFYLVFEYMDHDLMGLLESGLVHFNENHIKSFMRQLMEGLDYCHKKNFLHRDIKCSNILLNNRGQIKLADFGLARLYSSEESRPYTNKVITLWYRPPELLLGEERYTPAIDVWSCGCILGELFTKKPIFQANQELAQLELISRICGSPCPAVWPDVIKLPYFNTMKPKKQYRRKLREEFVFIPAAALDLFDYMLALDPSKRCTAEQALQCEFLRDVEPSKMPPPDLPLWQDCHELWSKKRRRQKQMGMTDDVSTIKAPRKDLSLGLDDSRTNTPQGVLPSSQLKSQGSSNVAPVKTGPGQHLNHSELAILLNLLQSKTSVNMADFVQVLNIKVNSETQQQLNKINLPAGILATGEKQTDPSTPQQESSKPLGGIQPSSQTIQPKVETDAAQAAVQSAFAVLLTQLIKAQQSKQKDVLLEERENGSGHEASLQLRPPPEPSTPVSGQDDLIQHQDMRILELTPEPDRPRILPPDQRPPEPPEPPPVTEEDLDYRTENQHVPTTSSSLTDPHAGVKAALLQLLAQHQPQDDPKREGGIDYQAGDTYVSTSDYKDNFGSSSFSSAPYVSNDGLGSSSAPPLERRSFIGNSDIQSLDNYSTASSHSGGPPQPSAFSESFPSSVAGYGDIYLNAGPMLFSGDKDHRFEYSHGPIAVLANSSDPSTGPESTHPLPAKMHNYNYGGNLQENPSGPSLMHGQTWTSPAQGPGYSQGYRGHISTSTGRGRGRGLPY
Assay [4] addresses protein kinases (human kinome) (Homo sapiens, UniProt P41240). The note with it: for logFC of CSK: Accession P41240; for logFC CSK: CSK (P41240), down.
Assay [5] concerns the target protein kinases (human kinome) (Homo sapiens, UniProt P24941).
Assay [6] concerns the target protein kinases (human kinome) (Homo sapiens, UniProt Q00535). The note with it: for logFC of CDK5: Accession Q00535.
[7] abbreviates: experiment wp146, direction of change down.
Setting [8] is: experiment wp016, direction of change down.

Chain of protein kinases (human kinome) (Homo sapiens, UniProt P41240) (P41240 whole entry): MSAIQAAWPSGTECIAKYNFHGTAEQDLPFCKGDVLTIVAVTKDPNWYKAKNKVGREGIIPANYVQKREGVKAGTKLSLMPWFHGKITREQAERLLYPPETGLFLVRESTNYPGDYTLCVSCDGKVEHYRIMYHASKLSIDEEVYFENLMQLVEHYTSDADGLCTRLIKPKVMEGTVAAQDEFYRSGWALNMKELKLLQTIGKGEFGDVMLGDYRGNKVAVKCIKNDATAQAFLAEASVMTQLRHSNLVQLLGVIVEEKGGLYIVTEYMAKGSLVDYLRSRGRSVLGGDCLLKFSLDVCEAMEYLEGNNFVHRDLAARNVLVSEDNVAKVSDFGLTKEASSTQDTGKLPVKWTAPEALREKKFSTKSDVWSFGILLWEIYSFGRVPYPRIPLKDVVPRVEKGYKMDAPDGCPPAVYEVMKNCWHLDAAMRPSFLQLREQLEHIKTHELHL
Chain of protein kinases (human kinome) (Homo sapiens, UniProt Q16584) (Q16584 whole entry): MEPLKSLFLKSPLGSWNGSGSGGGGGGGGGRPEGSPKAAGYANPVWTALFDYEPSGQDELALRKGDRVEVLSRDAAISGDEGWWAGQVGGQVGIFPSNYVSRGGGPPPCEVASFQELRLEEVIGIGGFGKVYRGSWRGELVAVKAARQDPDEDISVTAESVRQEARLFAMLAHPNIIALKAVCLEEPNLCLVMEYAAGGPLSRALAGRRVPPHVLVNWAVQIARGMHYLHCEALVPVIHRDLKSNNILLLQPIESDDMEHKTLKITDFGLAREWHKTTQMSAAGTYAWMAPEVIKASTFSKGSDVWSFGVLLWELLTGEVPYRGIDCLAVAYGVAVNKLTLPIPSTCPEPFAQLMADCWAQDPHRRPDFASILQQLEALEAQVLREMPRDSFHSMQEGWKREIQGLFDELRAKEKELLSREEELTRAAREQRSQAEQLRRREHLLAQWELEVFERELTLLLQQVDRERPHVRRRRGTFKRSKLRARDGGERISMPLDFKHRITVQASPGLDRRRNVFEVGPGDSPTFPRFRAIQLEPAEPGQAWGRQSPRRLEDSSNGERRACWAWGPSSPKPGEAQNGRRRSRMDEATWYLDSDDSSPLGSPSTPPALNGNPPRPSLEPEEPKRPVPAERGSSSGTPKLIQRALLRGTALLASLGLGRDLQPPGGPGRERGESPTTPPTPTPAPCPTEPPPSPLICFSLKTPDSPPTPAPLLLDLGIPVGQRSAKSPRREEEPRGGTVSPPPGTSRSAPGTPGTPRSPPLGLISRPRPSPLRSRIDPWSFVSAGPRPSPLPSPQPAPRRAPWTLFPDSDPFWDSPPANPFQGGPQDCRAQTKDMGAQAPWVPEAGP
Chain of protein kinases (human kinome) (Homo sapiens, UniProt Q00535) (Q00535 whole entry): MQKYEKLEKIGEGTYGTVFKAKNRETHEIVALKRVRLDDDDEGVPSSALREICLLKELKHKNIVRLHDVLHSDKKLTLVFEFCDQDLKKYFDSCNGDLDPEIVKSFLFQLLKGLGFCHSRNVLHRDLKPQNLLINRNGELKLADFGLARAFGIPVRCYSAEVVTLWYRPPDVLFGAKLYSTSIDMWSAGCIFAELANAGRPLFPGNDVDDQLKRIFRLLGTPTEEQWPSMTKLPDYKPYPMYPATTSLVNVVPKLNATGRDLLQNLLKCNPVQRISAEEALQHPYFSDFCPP
Chain of protein kinases (human kinome) (Homo sapiens, UniProt P45984) (P45984 whole entry): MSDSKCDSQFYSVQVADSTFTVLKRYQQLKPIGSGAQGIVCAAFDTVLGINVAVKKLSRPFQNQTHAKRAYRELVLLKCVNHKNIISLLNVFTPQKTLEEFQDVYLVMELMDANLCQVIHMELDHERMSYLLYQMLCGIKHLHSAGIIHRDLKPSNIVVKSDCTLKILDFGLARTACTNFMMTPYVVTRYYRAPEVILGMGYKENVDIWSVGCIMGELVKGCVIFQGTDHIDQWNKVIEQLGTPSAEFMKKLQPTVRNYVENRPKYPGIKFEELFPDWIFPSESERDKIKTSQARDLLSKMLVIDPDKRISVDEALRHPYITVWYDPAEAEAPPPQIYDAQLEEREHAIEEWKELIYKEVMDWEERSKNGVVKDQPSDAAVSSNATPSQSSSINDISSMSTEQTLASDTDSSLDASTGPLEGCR

For the molecule `CS(=O)(=O)Nc1cccc(-c2csc3cnc(Nc4ccc(N5CCN(CCCCCOc6cccc7c6C(=O)N(C6CCC(=O)NC6=O)C7=O)CC5)cc4)nc23)c1` (stereo not shown) [DB0614, N-(3-(2-((4-(4-(5-((2-(2,6-Dioxopiperidin-3-yl)-1,3-dioxoisoindolin-4-yl)oxy)pentyl)piperazin-1-yl)phenyl)amino)thieno[3,2-d]pyrimidin-7-yl)phenyl)methanesulfonamide], in assay [1] (experiment wp045), the logFC is −0.5244 and the “logFC MAPK9” value is −0.5244. Besides, in assay [1] (experiment wp117), the logFC is −0.564 and the “logFC MAPK9” value was −0.564. The “logFC MAP3K11 (Q16584)” value in assay [2] (experiment wp117) is given as −0.7291.

For the molecule `O=C1CCC(N2C(=O)c3cccc(NCCCCCCCCN4CCC(NC(=O)c5[nH]ncc5NC(=O)c5c(Cl)cccc5Cl)CC4)c3C2=O)C(=O)N1` (stereo not shown) [MFH.5.126.1], in assay [3] (experiment wp076), the “logFC CDK13” value is recorded as −0.4846 and the “logFC CDK13 (Q14004-1)” value is listed as −0.4846.

`Cc1ccc(NC(=O)c2cccc(C(F)(F)F)c2)cc1N1Cc2cnc(Nc3ccc(N4CCN(CCCCC(=O)N[C@H](C(=O)N5C[C@H](O)C[C@H]5C(=O)N[C@@H](C)c5ccc(-c6scnc6C)cc5)C(C)(C)C)CC4)nc3)nc2N(C)C1=O` [DB1113]: in assay [4] (experiment wp168), the “logFC of CSK” value is on record as −1.62 and the “logFC CSK” value is recorded as −1.62. Also, in assay [1] (experiment wp168), the logFC is given as −1.216 and the “logFC MAPK9” value is −1.216.

As for `Cc1cc(Nc2ncc(Br)c(Nc3cccc(F)c3C(N)=O)n2)ccc1S(=O)(=O)NCCOCCOCCOCCOCCNc1cccc2c1C(=O)N(C1CCC(=O)NC1=O)C2=O` (stereo not shown) [TMX.02.174], the “logFC CDK2 (P24941-1)” value in assay [5] (experiment wp146) and in assay [5] (setting [7]) was −2.295 each time. Also, the logFC in assay [1] (experiment wp146) is listed as −1.031. The “logFC MAPK9” value in assay [1] (experiment wp146) is on record as −1.031. The “logFC CDK5 (Q00535)” value in assay [6] (experiment wp146) and in assay [6] (setting [7]) was −3.161 each time. Also, the “logFC MAP3K11 (Q16584)” value in assay [2] (experiment wp146) is recorded as −1.874.

For the molecule `Cc1ccc(C(=O)Nc2ccc(CN3CCN(CCOCCOCCNC(=O)CNc4cccc5c4C(=O)N(C4CCC(=O)NC4=O)C5=O)CC3)c(C(F)(F)F)c2)cc1C#Cc1cnc2cccnn12` (stereo not shown) [TL13.150], the “logFC of CDK5” value in assay [6] (experiment wp081) is −0.3786. For the same molecule, the “logFC CDK5 (Q00535)” value in assay [6] (experiment wp081, direction of change down) is reported as −0.3786.

In the case of `Cc1ncsc1-c1ccc([C@H](C)NC(=O)[C@@H]2C[C@@H](O)CN2C(=O)[C@@H](NC(=O)CCOCCOCCN2CCN(c3ccc(Nc4ncc(Cl)c(Nc5ccccc5S(=O)(=O)C(C)C)n4)cc3)CC2)C(C)(C)C)cc1` [FMF.06.098.1], the “logFC CDK2 (P24941-1)” value in assay [5] (Experiment wp108) is recorded as −0.6501; in assay [5] (experiment wp108, direction of change down), −0.6501; in assay [5] (experiment wp131), −0.8725; in assay [5] (experiment wp131, direction of change down) it was −0.8725. Moreover, the “logFC CDK13” value is given as −0.3664 in assay [3] (experiment wp108) and −0.4981 in assay [3] (experiment wp131). In addition, the “logFC CDK13 (Q14004-1)” value is reported as −0.3664 in assay [3] (Experiment wp108) and −0.4981 in assay [3] (experiment wp131).

In the case of `Cc1ccc(NC(=O)c2cccc(C(F)(F)F)c2)cc1N1Cc2cnc(Nc3ccc(N4CCN(CCCCCCOc5cccc6c5C(=O)N(C5CCC(=O)NC5=O)C6=O)CC4)nc3)nc2N(C)C1=O` (stereo not shown) [DB0663], in assay [4] (experiment wp045), the “logFC of CSK” value is −1.206 and the “logFC CSK” value is −1.206. Also, in assay [1] (experiment wp045), the logFC is given as −0.598 and the “logFC MAPK9” value is reported as −0.598.

In the case of `NC(=O)c1c(F)cccc1Nc1nc(Nc2ccc(S(=O)(=O)NCCOCCOCCOCCOCCNc3cccc4c3C(=O)N(C3CCC(=O)NC3=O)C4=O)cc2)ncc1Br` (stereo not shown) [TMX.02.138], the “logFC CDK2 (P24941-1)” value in assay [5] (experiment wp146) and in assay [5] (setting [7]) was −2.27 each time. In addition, the logFC in assay [1] (experiment wp146) is −1.518. Moreover, the “logFC MAPK9” value in assay [1] (experiment wp146) is listed as −1.518. For the same molecule, the “logFC CDK5 (Q00535)” value in assay [6] (experiment wp146) and in assay [6] (setting [7]) was −3.29 in each case. In addition, the “logFC MAP3K11 (Q16584)” value in assay [2] (experiment wp146) was −0.9241.

For the molecule `CC(C)S(=O)(=O)c1ccccc1Nc1nc(Nc2ccc(N3CCN(CCOCCNC(=O)CNc4ccc5c(c4)C(=O)N(C4CCC(=O)NC4=O)C5=O)CC3)cc2)ncc1Cl` (stereo not shown) [SK.3.93], the “logFC CDK2 (P24941-1)” value in assay [5] (experiment wp016) is given as −0.5433. Further, the “logFC CDK2 (P24941-1)” value in assay [5] (setting [8]) was −0.5433. The “logFC of CDK5” value in assay [6] (experiment wp016) is on record as −0.9703. Moreover, the “logFC CDK5 (Q00535)” value in assay [6] (setting [8]) is reported as −0.9703. In addition, in assay [3] (experiment wp016), the “logFC CDK13” value is −0.5636 and the “logFC CDK13 (Q14004-1)” value is recorded as −0.5636.

With `Cc1ncsc1-c1ccc([C@H](C)NC(=O)[C@@H]2C[C@@H](O)CN2C(=O)[C@@H](NC(=O)CCCCCN2CCN(c3ccc(Nc4ncc5scc(-c6cccc(NS(C)(=O)=O)c6)c5n4)cc3)CC2)C(C)(C)C)cc1` [RSS0680, (2S,4R)-1-((S)-3,3-Dimethyl-2-(6-(4-(4-((7-(3-(methylsulfonamido)phenyl)thieno[3,2-d]pyrimidin-2-yl)amino)phenyl)piperazin-1-yl)hexanamido)butanoyl)-4-hydroxy-N—((S)-1-(4-(4-methylthiazol-5yl)phenyl)ethyl)pyrrolidine-2-carboxamide], the “logFC CDK2 (P24941-1)” value is recorded as −0.6588 in assay [5] (Experiment wp117); −0.4202 in assay [5] (experiment wp080); −0.4202 in assay [5] (experiment wp080, direction of change down); −0.6588 in assay [5] (experiment wp117, direction of change down).
